Test results: patent US9889087B2, “Intranasal delivery of β2-adrenergic receptor agonists for improving cognition in humans with down syndrome and compositions therefor” (priority 2014, dated 2018)
Converted amounts (≈) assume the structure as drawn. Read-outs that look alike come from different tables or passages of the source.

Tests used:
[1] = test system: Ts65Dn mice; conditions: cited from earlier work; for contextual learning: earlier studies
[2] = in vivo; cited from earlier work
[3] = test system: Ts65Dn and 2N mice
Method: b) Fear Conditioning. […] The fear conditioning tests were done using four FreezeScan chambers (Clever Sys) on days 4 and 5 after the start of the open field-testing. […] Four hours later, the mice were placed in the fear-conditioning chamber and their baseline activity was recorded for three minutes. At the end of this period, each mouse was exposed to five shocks (2 seconds each, 0.5 mA) with inter-trial intervals of 80 seconds. Twenty-four hours later, the mice were injected again, similar to the Training Day, and returned to the same fear-conditioning chamber for five minutes and their activity was recorded. Freezing was defined as a lack of movement for 3 frames.

[4] = physchem; conditions: water
[5] = test system: Ts65Dn and 2N mice; assay: Cardiovascular and respiratory system monitoring (MouseOx vital signs); type: in vivo, mouse; conditions: 2N and Ts65Dn mice
Method: Cardiovascular and Respiratory System Monitoring. […] The monitor was attached to a collar clip with an LED sensor to enable recordings in free-moving mice. To minimize stress before recording, the collar clip was attached to each animal. After five minutes, heart rate, respiratory rate, and oxygen saturation were recorded using MOUSEOX® 6.3.13 for 10 minutes.

[6] = test system: Ts65Dn and 2N mice; conditions: intranasal 2 mg per kg for 5 days
Excerpt: Mice were acclimated to handling for a period of two weeks before the onset of intranasal dosing. Acclimation helped to ensure a correct body position for maximum effectiveness of awake intranasal drug delivery. In addition, acclimation prevented the occurrence of anxiety reaction after dosing. Mice spent about 2-3 days on each of nine steps before progressing to the next step, depending upon the animal's comfort to handling. The mouse's stress level was used as a measure of progress. To do this, the mouse's movements, the amount and frequency of urination, defecation, trembling and biting were assessed.
7) The mouse was placed back on top of his cage for 2 min. and the entire process was repeated starting 2 min. after delivery of the first drop. All together the mouse received four drops of up to 6 μl each totaling a maximum volume of 24 μl of solution.
The training began on the 4th day of intranasal dosing.
The testing day was done on the 5th and final day of dosing.
The first trial for each mouse was done 3 hours post-intranasal dose.
6) The number of incorrect arm entries was quantified. Entries into the goal arm were not counted as errors, even if the platform was not located. An entry was considered to occur when all four legs of the mouse had entered the alley completely and the mouse was parallel to the alley walls. […]

[7] = test system: Ts65Dn and 2N mice; assay: BrdU cell proliferation count in the DG; type: in vivo, mouse; conditions: nadolol alone or nadolol + formoterol
Method: To identify proliferating cells, we used 5-bromo-2′-deoxyuridine (BrdU, Sigma). It was dissolved in PBS, filtered, and kept at 4° C. till use. After 15 days of treatment, each mouse was injected IP daily (50 mg/kg) with BrdU solution for 5 days. Thereafter, on day 21, all mice were anesthetized and transcardially perfused with ice-cold saline. The entire brain was immediately removed and the two hemispheres were separated. The left hemisphere was fixed overnight, cut, and stored. […] This was followed by incubation of sections in ABC.
Stereo-Investigator (MBF) was used to quantify the total number of BrdU-positive cells in the entire septo-temporal extent of DG. Following the outlining of the DG area at 4×, each positive profile was identified using a 100× oil objective. […] A Nanozoomer system (Hamamatsu 2.0 RS) was used to capture images of the entire slide in each case. High magnification images were captured using the Nanozoomer and stored.

O=C(NCCNCC(O)COc1ccc(O)cc1)N1CCOCC1 (stereo not shown) [xamoterol]
contextual learning [1]: significantly improve | spatial learning and/or hyperactivity ([1]; later studies): did not improve

N[C@H](C(=O)O)[C@H](O)c1ccc(O)c(O)c1 [L-DOPS, L-threo-3,4-dihydroxyphenylserine]
contextual learning [1]: restored

COc1ccc(CC(C)NCC(O)c2ccc(O)c(NC=O)c2)cc1 (stereo not shown) [formoterol]
crossing of the blood brain barrier [2]: cross the blood brain barrier | contextual learning ([3]; 2N mice): improvement | contextual learning ([3]; Ts65Dn mice, 6 months, vs nadolol only): significant improvement | freezing behavior within first five minutes in context ([3]; Ts65Dn mice, vs nadolol only): significant increase | solubility [4]: ~17.2 mg/mL (≈ 49.9 mM) | effect on oxygen saturation ([5]; formoterol together with nadolol): no significant effects | effect on heart rate ([5]; ANOVA treatment effect): No significant effects | effect on respiratory rate ([5]; ANOVA treatment effect): No significant effects | spatial learning [6]: significant improvement

CC(C)(C)NCC(O)COc1cccc2c1CC(O)C(O)C2 (stereo not shown) [nadolol]
total number of BrdU-positive profiles in the DG [7]: 3,161.930±900
